These compounds were tested on MDA-MB-231 (assay: Inhibition of MDA-MB-231 viability/growth at 1 μM, 72 h). Settings: 1 μM compound, 72 h incubation.
Assay type: cell-based
For Cc1n[nH]c2ccc3c(c12)[C@H]1C2CC[C@@H](C2)[C@H]1[C@H](c1ccc2[nH]nc(N)c2c1)N3 (stereo in doubt) [Compound 20, 5-(1-Methyl-6,7,7a,8,9,10,11,11a-octahydro-3H-8,11-methanopyrazolo[4,3-a]phenanthridin-7-yl)-1H-indazol-3-amine], the “Inhibition of MDA-MB-231, result in words” value (shortened to “Inhibition … in words”) was “loss of potency”.
In the case of Nc1n[nH]c2ccc([C@@H]3Nc4ccc5[nH]nnc5c4[C@H]4C5CC[C@@H](C5)[C@@H]34)cc12 (stereo in doubt) [Compound 18, 5-(6,7,7a,8,9,10,11,11a-Octahydro-3H-8,11-methano[1,2,3]triazolo[4,5-a]phenanthridin-7-yl)-1H-indazol-3-amine], the “Inhibition … in words” value is reported as “loss in potency”.
With Nc1n[nH]c2ccc([C@@H]3Nc4ccc5[nH]ncc5c4[C@H]4OCCO[C@H]43)cc12 (stereo in doubt) [Compound 33, 5-(2,3,4a,6,9,11c-Hexahydro-5H-[1,4]dioxino[2,3-c]pyrazolo[4,3-f]quinolin-5-yl)-1H-indazol-3-amine] the “Inhibition … in words” value was “no activity”.
With Nc1n[nH]c2ccc([C@@H]3Nc4ccc5[nH]nc(F)c5c4[C@H]4C5CC[C@@H](C5)[C@@H]34)cc12 (stereo in doubt) [Compound 21, 5-(1-Fluoro-6,7,7a,8,9,10,11,11a-octahydro-3H-8,11-methanopyrazolo[4,3-a]phenanthridin-7-yl)-1H-indazol-3-amine] the “Inhibition … in words” value was “loss of potency”.

Same assay, conditions: Homo sapiens, MDA-MB-231; 1 μM compound, 72 h incubation
With NC(=O)c1ccc([C@@H]2Nc3ccc4[nH]ncc4c3[C@H]3C4CC[C@@H](C4)[C@@H]23)cc1 (stereo in doubt) [Compound 12, 4-(6,7,7a,8,9,10,11,11a-Octahydro-3H-8,11-methanopyrazolo[4,3-a]phenanthridin-7-yl)benzamide] the inhibition at 1 µM was 17%.
Cn1cc([C@@H]2Nc3ccc4[nH]ncc4c3[C@H]3[C@@H]4CC[C@@H](C4)[C@H]32)c(C(F)(F)F)n1 (stereo in doubt) [Compound 5, 7-(1-Methyl-3-(trifluoromethyl)-1H-pyrazol-4-yl)-6,7,7a,8,9,10,11,11a-octahydro-3H-8,11-methanopyrazolo[4,3-a]phenanthridine] was tested, and the inhibition at 1 µM was 70%.
In the case of Cn1cc([C@@H]2Nc3ccc4[nH]ncc4c3[C@H]3C4CC[C@@H](C4)[C@@H]23)c(C2CC2)n1 (stereo in doubt) [Compound 13, 7-(3-Cyclopropyl-1-methyl-1H-pyrazol-4-yl)-6,7,7a,8,9,10,11,11a-octahydro-3H-8,11-methanopyrazolo[4,3-a]phenanthridine], the inhibition at 1 µM is reported as 0%.
FC(F)(F)c1ccc([C@@H]2Nc3ccc4[nH]ncc4c3[C@H]3[C@@H]4CC[C@@H](C4)[C@H]32)cc1 (stereo in doubt) [Compound 6, 7-(4-(Trifluoromethyl)phenyl)-6,7,7a,8,9,10,11,11a-octahydro-3H-8,11-methanopyrazolo[4,3-a]phenanthridine] showed an inhibition at 1 µM of 21%.
Compound c1csc([C@@H]2Nc3ccc4[nH]ncc4c3[C@H]3[C@@H]4CC[C@@H](C4)[C@H]32)n1 (stereo in doubt) [Compound 3, 2-(6,7,7a,8,9,10,11,11a-Octahydro-3H-8,11-methanopyrazolo[4,3-a]phenanthridin-7-yl)thiazole] has an inhibition at 1 µM of 13%.
For O=C(Nc1n[nH]c2ccc([C@@H]3Nc4ccc5[nH]ncc5c4[C@H]4[C@@H]5CC[C@@H](C5)[C@H]43)cc12)C1CC1 (stereo in doubt) [Compound 28, N-(5-(6,7,7a,8,9,10,11,11a-octahydro-3H-8,11-Methanopyrazolo[4,3-a]phenanthridin-7-yl)-1H-indazol-3-yl)cyclopropanecarboxamide], the inhibition at 1 µM was 31%.
Nc1n[nH]c2ccc([C@@H]3Nc4ccc5cn[nH]c5c4[C@H]4[C@@H]5CC[C@@H](C5)[C@H]43)cc12 (stereo in doubt) [Compound 31, 5-(6,7,7a,8,9,10,11,11a-Octahydro-1H-8,11-methanopyrazolo[3,4-a]phenanthridin-7-yl)-1H-indazol-3-amine] was tested, and the inhibition at 1 µM was 94%.
In the case of c1nc([C@@H]2Nc3ccc4[nH]ncc4c3[C@H]3[C@@H]4CC[C@@H](C4)[C@H]32)c[nH]1 (stereo in doubt) [Compound 4, 7-(1H-Imidazol-4-yl)-6,7,7a,8,9,10,11,11a-octahydro-3H-8,11-methanopyrazolo[4,3-a]phenanthridine], the inhibition at 1 µM is reported as 14%.
Work on c1cc2[nH]ncc2cc1[C@@H]1Nc2ccc3[nH]ncc3c2[C@H]2C3CC[C@@H](C3)[C@@H]12 (stereo in doubt) [Compound 16, 7-(1H-Indazol-5-yl)-6,7,7a,8,9,10,11,11a-octahydro-3H-8,11-methanopyrazolo[4,3-a]phenanthridine] yielded an inhibition at 1 µM of 78%.
For Oc1ccc([C@@H]2Nc3ccc4[nH]ncc4c3[C@H]3C4CC[C@@H](C4)[C@@H]23)c(F)c1 (stereo in doubt) [Compound 14, 3-Fluoro-4-(6,7,7a,8,9,10,11,11a-octahydro-3H-8,11-methanopyrazolo[4,3-a]phenanthridin-7-yl)phenol], the inhibition at 1 µM was 11%.
Nc1ccc([C@@H]2Nc3ccc4[nH]ncc4c3[C@H]3[C@@H]4CC[C@@H](C4)[C@H]32)cn1 (stereo in doubt) [Compound 9, 5-(6,7,7a,8,9,10,11,11a-Octahydro-3H-8,11-methanopyrazolo[4,3-a]phenanthridin-7-yl)pyridin-2-amine] was tested, and the inhibition at 1 µM was 18%.
In the case of Oc1ccc([C@@H]2Nc3ccc4[nH]ncc4c3[C@H]3C4CC[C@@H](C4)[C@@H]23)cc1 (stereo in doubt) [Compound 11, 4-(−6,7,7a,8,9,10,11,11a-Octahydro-3H-8,11-methanopyrazolo[4,3-a]phenanthridin-7-yl)phenol], the inhibition at 1 µM is reported as 0%.
Work on Nc1n[nH]c2cc([C@@H]3Nc4ccc5[nH]ncc5c4[C@H]4[C@@H]5CC[C@@H](C5)[C@H]43)ccc12 (stereo in doubt) [Compound 30, 6-(6,7,7a,8,9,10,11,11a-Octahydro-3H-8, 11-methanopyrazolo[4,3-a]phenanthridin-7-yl)-1H-indazol-3-amine] yielded an inhibition at 1 µM of 29%.
In the case of FC(F)(F)c1n[nH]cc1[C@@H]1Nc2ccc3[nH]ncc3c2[C@H]2[C@@H]3CC[C@@H](C3)[C@H]21 (stereo in doubt) [Compound 1, 7-(3-(Trifluoromethyl)-1H-pyrazol-4-yl)-6,7,7a,8,9,10,11,11a-octahydro 3H-8,11-methanopyrazolo[4,3-a]phenanthridine], the inhibition at 1 µM is reported as 5%.

— US20230312562A1, “TETRAHYDRO-3H-PYRAZOLO QUINOLONE AND TETRAHYDRO-3H-PYRROLO[3,2-F]QUINOLINE -CONTAINING COMPOUNDS AND USES THEREOF” (Purdue Research Foundation, priority 2020, published 2023)
